Data: patent US11377659B2, “Short hairpin RNA (shRNA734) and use of same to positively select and eliminate genetically modified cells” (THE REGENTS OF THE UNIVERSITY OF CALIFORNIA, priority 2016, dated 2022)

What was measured:
[1] = humans, estimated; cited from earlier work
[2] = system: Molt4CCR5, PBMC and CD34+ cells; assay: MTX mediated negative selection of HPRT knock down cells; assay type: cell-based, human; settings: in vitro, 10 μM MTX; % EGFP monitored
Excerpt: FIG. 8. Line graphs showing MTX mediated inhibition of Dihydrofolate reductase (DHFR) induced cell death in HPRT knock down cells.
Negative selection of HPRT knock down cells by MTX is illustrated in FIG. 7, which presents a schematic illustration of MTX mediated inhibition of Dihydrofolate reductase (DHFR) induced cell death in HPRT knock down cells. […] The de novo synthesis occurs through a multi-step process and requires the contribution of four aminoacids, one PRPP, two folates and three ATP to synthesize an inosine monophosphate (IMP) molecule. HPRT catalyzes the salvage synthesis of inosine monophosphate (IMP) and guanosine monophosphate (GMP) from the purine bases hypoxanthine and guanine respectively, utilizing PRPP as a co-substrate. The HPRT defect results in the accumulation of its substrates, hypoxanthine and guanine, which are converted into uric acid by means of xanthine oxidase. Elevated APRT activity may also contribute to purine overproduction.
Molt4CCR5 (A), PBMC (B) and CD34+ (C) cells were transduced with dual shRNA vector. The transduced cells were cultured with or without 10 μM MTX. Cells were monitored for % EGFP and given fresh media containing MTX every 3 days.

[3] = system: human T-cell line, CD34+ cells and primary peripheral blood mononuclear cells (PBMC); assay: 6TG-mediated positive selection of lentiviral vector-transduced cells in vitro; assay type: cell-based; settings: cultured in the presence of 6TG
Method: FIG. 4. Lentiviral vector delivery of HPRT shRNA results in efficient selections of HPRT knockdown by 6TG. Selection of HPRT knockdown Molt4-CCR5, PBMC and CD34+ cell by 6TG. The shRNA vector and control vector transduced cells were cultured with or without 6TG.
The potent and non-toxic HPRT shRNA enables 6TG-mediated positive selection of lentiviral vector-transduced human T-cell line, CD34+ cells and primary peripheral blood mononuclear cells (PBMC) in vitro. A lentivirus vector was utilized to deliver sh734 and to stably knockdown HPRT in human T cell lines, primary peripheral blood mononuclear cells and CD34+ hematopoietic stem/progenitor cells.
Furthermore, the invention provides a combinatorial anti-HIV lentiviral vector expressing the HIV fusion inhibitor C46, and shRNAs for CCR5 and HPRT. […] Methotrexate (MTX) has been used to negatively select the transduced cells.
(§1) The shRNA vector and control vector transduced cells were cultured with or without 6TG. […] Whole cell lysates were analyzed by Western blot after transduction at the indicated time points.

[4] = system: hypoxanthine guanine phosphoribosyltransferase (HPRT); assay: HPRT knockdown in vector transduced cells (Western blot); assay type: cell-based, human; settings: lentiviral vector transduced cells
Method: FIG. 6. HPRT knockdown in vector transduced cells. Whole cell lysates were analyzed by Western blot after transduction at the indicated time points.
as §1

For Nc1nc2nc[nH]c2c(=S)[nH]1 [6TG, 6-thioguanine], the “Absorption after oral administration” value [1] is listed as 30%.

With CN(Cc1cnc2nc(N)nc(N)c2n1)c1ccc(C(=O)N[C@@H](CCC(=O)O)C(=O)O)cc1 [MTX, methotrexate] the “negative selection of HPRT knock down cells by MTX” value [2] was “negatively selected”.

With “sh734: short hairpin RNA directed to human HPRT, coding sequence SEQ ID NO: 1 (DNA AGGATATGCCCTTGACTATTTGTCCGACATAGTCAAGGGCATATCCT; expressed or natural sequence)” the “positive selection of vector transduced cells by 6TG” value [3] was “positively selected” and the HPRT knockdown [4] was “efficient HPRT knockdown”.
